In PMC4977651, “Molecular features of biguanides required for targeting of mitochondrial respiratory complex I and activation of AMP-kinase” (BMC Biology, 2016):
Where “and” joins values, the source holds several entries; their conditions need not be identical. Equal values may be shown once.

How the values were obtained:
[1] = system: bovine mitochondrial membranes (complexes II-III-IV); assay: Succinate:O2 oxidoreduction (complexes II-III-IV, complex II assay) by bovine mitochondrial membranes; format: biochemical, Bos taurus; details: biguanide concentrations set to the IC50 values for NADH:O2 on bovine membranes; control = 100.00; n = 3
Description: Assays were performed at 32 °C in a SpectraMax 96-well plate reader. NADH:decylubiquinone oxidoreduction by complex I at 0.5 μg mL^−1 was measured in 20 mM Tris-HCl (pH 7.2), 0.15 % soy bean asolectin (Avanti Polar Lipids), and 0.15 % 3-((3-cholamidopropyl)dimethylammonium)-1-propanesulfonate (CHAPS, Merck Chemicals Ltd), with 200 μM decylubiquinone and 200 μM NADH, and monitored using ε340–380(NADH) = 4.81 mM^−1 cm^−1 [23]. Catalysis was initiated by addition of NADH and maximal rates determined by linear regression. NADH:O2 oxidoreduction by membranes was measured similarly but using 5 μg mL^−1 membranes in 10 mM Tris-HCl (pH 7.4) and 250 mM sucrose using 200 μM NADH and supplemented with 0.15 mM horse heart cytochrome c (Sigma-Aldrich Ltd.). Succinate:O2 oxidoreduction was measured using 40 μg mL^−1 membranes in 5 mM succinate in 10 mM Tris-HCl (pH 7.4) as described previously. Control experiments included NaCl (to match the ionic strength) or DMSO, as appropriate.

mouse liver mitochondria = assay: ADP-stimulated rotenone-sensitive OCR in isolated mouse liver mitochondria; format: biochemical; set-up: rotenone sensitive OCR after ADP stimulation, individual replicates / rotenone sensitive OCR after ADP stimulation, average: unit not given here; details: for rotenone sensitive OCR after ADP stimulation, % of control, average / rotenone sensitive OCR after ADP stimulation, average: average of replicates; for rotenone sensitive OCR after ADP stimulation, % of control, individual replicates / rotenone sensitive OCR after ADP stimulation, individual replicates: replicate 1-5
Description: Complex I and mitochondrial membranes were prepared from Bos taurus (bovine) heart. Intact mitochondria were isolated from rat liver and mouse heart and liver. Membranes were prepared from mouse heart mitochondria by 5 s bursts of sonication at 4 °C and collected by centrifugation (75,000 × g, 1 h).
Isolated mitochondria were monitored using a Seahorse XF96 extracellular flux analyzer at 32 °C. Mouse heart mitochondria, and mouse and rat liver mitochondria were plated into XF96 plates at 4 and 16–20 μg per well, respectively, in 220 mM mannitol, 70 mM sucrose, 10 mM KH2PO4, 5 mM MgCl2, 1 mM EGTA, 0.2 % fatty acid-free BSA, and 2 mM HEPES (pH 7.4 at 37 °C) with 10 mM glutamate and 10 mM malate and adhered by centrifugation (2000 × g, 20 min, 4 °C). The medium was supplemented with a further 5 mM glutamate and 5 mM malate and the mitochondria incubated for 15 min. Then two baseline readings were taken before the biguanides were added at IC50/5. Biguanides were allowed to accumulate for 15–20 min before respiration was […] by the addition of 4 mM ADP. Rotenone (2 μM) was added at the end of the experiment. Data from wells with failed port injections were excluded from the analyses. The RCR values (state III versus state IV respiration) were 3.4, 4.8, and 4.6 for mouse heart, rat liver, and mouse liver, respectively.

AMPK-α (phospho-Thr172) = assay: AMPK activation, western blot of phospho-AMPK-α in MDBK cells; format: cell-based, Bos taurus; details: for AMPK activation (in words): 18-h treatment, IC50/10 biguanide concentrations; for p-alpha, average normalised to control: Averages of experiments 1-3, 18 hours; for p-alpha: band intensity
Description: MDBK cells were seeded at 1 × 10^6 cells per 6 cm dish in DMEM containing 10 % FBS. […] After 18 h cells were harvested by a rapid lysis procedure: cells were rinsed with PBS, then lysed using ice-cold buffer containing 50 mM HEPES, 1 mM EDTA, 10 % glycerol, 50 mM NaF, 5 mM sodium pyrophosphate, 1 % Triton-X100, 1 mM dithiothreitol (DTT), and a protease inhibitor cocktail (Roche). The cell lysate was centrifuged at 14,000 × g for 20 min at 4 °C and the protein concentration of the supernatant determined by bicinchoninic acid assay. The lysate was analyzed using Novex 3–12 % bis-Tris gels run in 3-(N-morpholino)propanesulfonic acid (MOPS) buffer (20 μg of protein per lane) followed by transfer to low fluorescence polyvinylidene fluoride membranes by wet transfer. Primary rabbit antibodies for AMPK-β (57C12), AMPK-α (phospho-Thr172) (40H9), and acetyl-coA carboxylase (phospho-Ser79) (Cell Signaling Technology) were incubated overnight with the membrane (1:1000 dilution) in Odyssey blocking buffer at 4 °C. A fluorescent secondary antibody was used (IRDYE800CW from LI-COR Biosciences, 1:20,000 dilution) with a LI-COR Odyssey imaging system.

[2] = Octanol/PBS partition coefficient, shake-flask method; format: physicochemical; details: 32 °C, pH 7.4, n = 3
Description: Octanol/PBS partition coefficients were measured by the shake-flask method at 32 °C, pH 7.4.

permeabilized 143B cells = assay: ADP-stimulated rotenone-sensitive OCR in permeabilized 143B cells; format: cell-based, human; set-up: rotenone sensitive OCR after ADP stimulation, individual replicates / rotenone sensitive OCR after ADP stimulation, average: unit not given here; details: for rotenone sensitive OCR after ADP stimulation, % of control, average / rotenone sensitive OCR after ADP stimulation, average / rotenone sensitive OCR after ADP stimulation, % of control, individual replicates / rotenone sensitive OCR after ADP stimulation, individual replicates: 143B permeabilised cells; for rotenone sensitive OCR after ADP stimulation, % of control, average / rotenone sensitive OCR after ADP stimulation, average: average of replicates; for rotenone sensitive OCR after ADP stimulation, % of control, individual replicates / rotenone sensitive OCR after ADP stimulation, individual replicates: replicate 1-11
Description: For permeabilized cell experiments, cells were seeded into XF96 plates at 0.9–1.1 × 10^4 per well and incubated for 48 h at 37 °C in 5 % CO2. Then, the growth medium was exchanged for assay buffer containing 3 nM plasma membrane permeabilizer ‘PMP’ (Seahorse Biosciences Inc.), 10 mM glutamate, 10 mM malate, 220 mM mannitol, 70 mM sucrose, 10 mM KH2PO4, 5 mM MgCl2, 1 mM EGTA, 0.2 % fatty acid-free bovine serum albumin (BSA), and 2 mM HEPES (pH 7.4 at 37 °C). […] The biguanides were allowed to accumulate for 30 min, then respiration was […] by the addition of 4 mM ADP. Rotenone was added (2 μM) at the end of the experiment.
Rotenone-sensitive OCRs were calculated by subtracting the rotenone-insensitive rates (determined at the end of the experiment). OCRs were normalized by dividing by the OCR recorded immediately prior to the addition of biguanide. For rate of uptake calculations, the OCRs at time points after biguanide addition were divided by the OCRs at the same time points in control experiments. Data from wells with failed port injections were excluded from the analyses. The respiratory control ratio (RCR) values (state III versus state IV respiration) were ~11 and ~6 for permeabilized MDBK and 143B cells, respectively.

Structure (SMILES)	Complex II assay (succinate:O2 oxidoreduction), average [1]	rotenone sensitive OCR after ADP stimulation, % of control, average (mouse liver mitochondria)	rotenone sensitive OCR after ADP stimulation, average (mouse liver mitochondria)	rotenone sensitive OCR after ADP stimulation, % of control, individual replicates (mouse liver mitochondria)	rotenone sensitive OCR after ADP stimulation, individual replicates (mouse liver mitochondria)	AMPK activation (in words) (AMPK-α (phospho-Thr172))	p-alpha, average normalised to control (AMPK-α (phospho-Thr172))	p-alpha / AMPK beta (AMPK-α (phospho-Thr172); Experiment 1, 18 hours)	p-alpha / AMPK beta normalised to control (AMPK-α (phospho-Thr172); Experiment 1, 18 hours)	p-alpha (AMPK-α (phospho-Thr172); Experiment 1, 18 hours)	p-alpha / AMPK beta (AMPK-α (phospho-Thr172); Experiment 2, 18 hours)	p-alpha / AMPK beta normalised to control (AMPK-α (phospho-Thr172); Experiment 2, 18 hours)	p-alpha (AMPK-α (phospho-Thr172); Experiment 2, 18 hours)	p-alpha / AMPK beta (AMPK-α (phospho-Thr172); Experiment 3, 18 hours)	p-alpha / AMPK beta normalised to control (AMPK-α (phospho-Thr172); Experiment 3, 18 hours)	p-alpha (AMPK-α (phospho-Thr172); Experiment 3, 18 hours)	rotenone sensitive OCR after ADP stimulation, % of control, average (permeabilized 143B cells)	rotenone sensitive OCR after ADP stimulation, average (permeabilized 143B cells)	rotenone sensitive OCR after ADP stimulation, % of control, individual replicates (permeabilized 143B cells)	rotenone sensitive OCR after ADP stimulation, individual replicates (permeabilized 143B cells)	further results
NC(N)=NC(N)=NCCc1ccc(Cl)cc1 [compound 1, 2-[2-(4-chlorophenyl)ethyl]-1-(diaminomethylidene)guanidine]	92.41	43.22 % of control	14.99	45.82 % of control and 40.66 % of control and 43.16 % of control	15.90 and 14.11 and 14.98	slightly lower activation	5.54	0.63	5.05	288	1.08	7.41	388	0.86	4.15	220	10.59 % of control	25.27	28.33 % of control and 12.14 % of control and 11.88 % of control and 16.92 % of control and 4.82 % of control and 10.72 % of control and 0.16 % of control and 5.78 % of control and 8.84 % of control and 6.27 % of control	67.63 and 28.97 and 28.36 and 40.38 and 11.50 and 25.59 and 0.37 and 13.80 and 21.11 and 14.98	logP [2]: 0.149
[H]/N=C(/N)N/C(=N/[H])NCCc1ccccc1 [phenformin, reference compound]	95.51	29.95 % of control	10.39	29.69 % of control and 34.49 % of control and 19.77 % of control and 35.85 % of control	10.30 and 11.97 and 6.86 and 12.44	slightly lower activation	3.64	0.44	3.54	203	0.63	4.29	234	0.64	3.08	154			10.68 % of control and 13.07 % of control and 7.19 % of control and 19.54 % of control and 11.54 % of control and 11.56 % of control and 7.70 % of control and 13.62 % of control and 4.19 % of control and 11.40 % of control and 4.31 % of control	25.49 and 31.21 and 17.16 and 46.64 and 27.56 and 27.59 and 18.38 and 32.52 and 10.00 and 27.22 and 10.30	
[H]/N=C(\N/C(=N/[H])Nc1ccc(Cl)cc1)NC(C)C [proguanil, reference compound]	95.35	89.71 % of control	31.13	103.28 % of control and 81.19 % of control and 80.15 % of control and 94.21 % of control	35.84 and 28.17 and 27.81 and 32.69		1.33	0.15	1.20	71.3	0.19	1.32	68.2	0.30	1.47	59.7	106.21 % of control	253.55	79.43 % of control and 103.02 % of control and 144.04 % of control and 93.57 % of control and 102.53 % of control and 101.42 % of control and 111.43 % of control and 105.36 % of control and 115.13 % of control	189.61 and 245.92 and 343.85 and 223.38 and 244.75 and 242.11 and 266.00 and 251.51 and 274.84	inhibition of the OCR (in words) (permeabilized 143B cells; permeabilized 143B cells, biguanide concentration equal to IC50): only limited inhibition
